pKi: −log10 of the molar value.
Key:
[1] = target: T1, Purine nucleoside phosphorylase (Homo sapiens, UniProt P00491); assay: Inhibition of human purine nucleoside phosphorylase by xanthine-oxidase coupled assay
T1 sequence (P00491 whole entry): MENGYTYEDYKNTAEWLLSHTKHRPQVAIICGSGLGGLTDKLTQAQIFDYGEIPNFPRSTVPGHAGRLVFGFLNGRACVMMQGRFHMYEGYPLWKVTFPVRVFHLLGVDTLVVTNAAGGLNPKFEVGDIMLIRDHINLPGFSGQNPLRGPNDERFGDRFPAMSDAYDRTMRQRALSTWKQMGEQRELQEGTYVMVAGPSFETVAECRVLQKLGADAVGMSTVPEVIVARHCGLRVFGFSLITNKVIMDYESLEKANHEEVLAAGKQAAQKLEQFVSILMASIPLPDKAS

[2] = target: T1, Purine nucleoside phosphorylase; assay: Inhibition of human purine nucleoside phosphorylase assessed as slow onset inhibition constant by xanthine-oxidase coupled assay

pKi [1]: 10.18 | pKi [2]: 9.30
Compound: O=c1[nH]cnc2c(CN3C[C@H](O)[C@@](F)(CO)C3)c[nH]c12 [Immucillins, 1]

— BindingDB's records for doi:10.1021/jm800792b (Industrial Research, 2008)
